Results on 1 compound are retold here after US9809623B2, “α4β7 peptide monomer and dimer antagonists” (Protagonist Therapeutics, Inc., priority 2014, dated 2017).

Numbered stars: 1 amine (or outer) side, 2 acyl side, 3 side chain; on linkers, the order of the positions; unused ones are H or OH. Bridge positions count the residues as written; N and C are the ends. Square brackets hold non-standard residues; d marks the D form. Peptide text beside a SMILES is read from it. I, II: the chains in the order shown. Phe(4-tBu) = CC(C)(C)c1ccc(C[C@H](N)C(=O)O)cc1; Diglycolyl = O=C(COCC(=O)[*:2])[*:1]; NMeR = CN[C@@H](CCCNC(=N)N)C(=O)O; β3hE = N[C@@H](CCC(=O)O)CC(=O)O; Pen = CC(C)(S)[C@H](N)C(=O)O

The target of one series is T1, α4β7 (Mus musculus, UniProt P26011+Q00651).
T1 construct: host or cells: TK1 mouse T cells
T1 sequence (Q00651 34-1039 limits assumed): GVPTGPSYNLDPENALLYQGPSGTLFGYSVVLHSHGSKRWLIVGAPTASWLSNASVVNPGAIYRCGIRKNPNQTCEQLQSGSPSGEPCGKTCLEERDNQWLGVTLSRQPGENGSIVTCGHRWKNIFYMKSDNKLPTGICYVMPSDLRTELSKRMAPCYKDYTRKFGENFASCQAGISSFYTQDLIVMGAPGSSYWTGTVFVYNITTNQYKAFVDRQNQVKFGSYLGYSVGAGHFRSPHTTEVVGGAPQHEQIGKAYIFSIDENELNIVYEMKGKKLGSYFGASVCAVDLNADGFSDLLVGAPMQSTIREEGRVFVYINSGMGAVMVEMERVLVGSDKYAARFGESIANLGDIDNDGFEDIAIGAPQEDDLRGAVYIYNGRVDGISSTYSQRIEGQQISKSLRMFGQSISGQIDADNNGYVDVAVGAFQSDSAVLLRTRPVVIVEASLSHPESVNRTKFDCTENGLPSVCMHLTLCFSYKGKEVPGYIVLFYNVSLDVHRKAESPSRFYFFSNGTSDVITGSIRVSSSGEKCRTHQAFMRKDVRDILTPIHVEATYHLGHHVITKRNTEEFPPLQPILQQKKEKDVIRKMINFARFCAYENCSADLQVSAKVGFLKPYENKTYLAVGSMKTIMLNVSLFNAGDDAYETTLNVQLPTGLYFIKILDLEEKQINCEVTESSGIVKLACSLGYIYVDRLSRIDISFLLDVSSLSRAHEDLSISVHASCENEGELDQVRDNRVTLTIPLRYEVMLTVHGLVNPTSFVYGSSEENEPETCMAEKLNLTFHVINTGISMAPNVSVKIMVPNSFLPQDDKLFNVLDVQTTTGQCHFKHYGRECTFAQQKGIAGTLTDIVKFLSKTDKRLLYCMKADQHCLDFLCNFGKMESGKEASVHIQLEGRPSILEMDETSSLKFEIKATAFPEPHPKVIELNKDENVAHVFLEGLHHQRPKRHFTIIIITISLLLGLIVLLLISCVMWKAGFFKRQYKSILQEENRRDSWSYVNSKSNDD
T1 sequence (P26011 20-806): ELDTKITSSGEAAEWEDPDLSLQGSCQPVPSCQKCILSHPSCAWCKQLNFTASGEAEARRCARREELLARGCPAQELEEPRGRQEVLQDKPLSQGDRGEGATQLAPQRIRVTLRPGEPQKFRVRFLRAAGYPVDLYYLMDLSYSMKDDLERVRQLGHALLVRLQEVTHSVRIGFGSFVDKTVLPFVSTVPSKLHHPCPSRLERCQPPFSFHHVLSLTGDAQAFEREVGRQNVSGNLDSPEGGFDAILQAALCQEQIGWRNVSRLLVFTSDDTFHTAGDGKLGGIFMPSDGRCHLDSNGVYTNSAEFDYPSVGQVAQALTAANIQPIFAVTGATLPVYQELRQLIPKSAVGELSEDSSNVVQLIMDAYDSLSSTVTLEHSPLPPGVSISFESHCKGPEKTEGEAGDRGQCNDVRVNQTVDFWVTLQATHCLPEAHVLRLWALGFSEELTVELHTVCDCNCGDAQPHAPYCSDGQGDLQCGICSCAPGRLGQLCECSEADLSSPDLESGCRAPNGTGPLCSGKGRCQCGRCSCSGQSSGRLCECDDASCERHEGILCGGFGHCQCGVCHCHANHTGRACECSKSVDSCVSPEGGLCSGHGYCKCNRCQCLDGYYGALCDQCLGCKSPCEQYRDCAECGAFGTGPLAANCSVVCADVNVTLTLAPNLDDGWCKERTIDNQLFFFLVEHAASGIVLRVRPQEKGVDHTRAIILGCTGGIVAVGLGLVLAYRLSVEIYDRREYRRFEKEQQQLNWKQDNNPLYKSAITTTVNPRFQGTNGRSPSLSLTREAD
Nature of the series: α4β7 Cell Adhesion Assay (Mouse), TK1 cells. It counts as cell-based. As to conditions: Table 4-B; read-out: Cell Adhesion α4β7 Mouse IC50. In outline: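 Mouse TK1 cells in DMEM with 0.1% BSA, 10 mM HEPES pH 7 and 1 mM MnCl2 were allowed to adhere for 30-45 min at 37 °C to plates coated with recombinant human MAdCAM-1 Fc (200 ng/well) in the presence of serially diluted peptides. Adherent cells were quantified by MTT absorbance at 570 nm, with no-cell background subtracted for dose response.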

Series [1] is described as follows: Simulated Gastric Fluid (SGF) Assay. Format: in vitro ADME. As to conditions: pig, simulated gastric fluid (SGF) with porcine pepsin, pH 2; Table 4-C, t1/2. The method in brief: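 Peptides at 20 μM final in simulated gastric fluid (NaCl, porcine pepsin, HCl; pH 2) at 37° C with shaking. Samples taken at 0, 15, 30 and 60 min, quenched in acetonitrile/0.1% formic acid and quantified by LC-MS/MS against internal standard, relative to time 0. Half-life from first-order exponential decay fit.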

The next series concerns the target α4β1 (Homo sapiens, UniProt P05556+P13612). Nature of the series: α4β1-VCAM Cell Adhesion Assay (Jurkat E6.1 human cells). Format: cell-based. On the set-up: host or cells: Jurkat E6.1 human T cells. As to conditions: Table 4-B; read-out: Cell Adhesion α4β1 IC50. In outline: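 Jurkat E6.1 cells in DMEM with 0.1% BSA, 10 mM HEPES pH 7 and 1 mM MnCl2 were added (200,000/well) with serially diluted peptides to rh VCAM-1-Fc-coated wells (400 ng/well) for 30-45 min at 37 °C. Adherent cells after washing were quantified by MTT, absorbance 570 nm, with no-cell background subtracted for dose response.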

Sequence of α4β1 (P13612 34-1032): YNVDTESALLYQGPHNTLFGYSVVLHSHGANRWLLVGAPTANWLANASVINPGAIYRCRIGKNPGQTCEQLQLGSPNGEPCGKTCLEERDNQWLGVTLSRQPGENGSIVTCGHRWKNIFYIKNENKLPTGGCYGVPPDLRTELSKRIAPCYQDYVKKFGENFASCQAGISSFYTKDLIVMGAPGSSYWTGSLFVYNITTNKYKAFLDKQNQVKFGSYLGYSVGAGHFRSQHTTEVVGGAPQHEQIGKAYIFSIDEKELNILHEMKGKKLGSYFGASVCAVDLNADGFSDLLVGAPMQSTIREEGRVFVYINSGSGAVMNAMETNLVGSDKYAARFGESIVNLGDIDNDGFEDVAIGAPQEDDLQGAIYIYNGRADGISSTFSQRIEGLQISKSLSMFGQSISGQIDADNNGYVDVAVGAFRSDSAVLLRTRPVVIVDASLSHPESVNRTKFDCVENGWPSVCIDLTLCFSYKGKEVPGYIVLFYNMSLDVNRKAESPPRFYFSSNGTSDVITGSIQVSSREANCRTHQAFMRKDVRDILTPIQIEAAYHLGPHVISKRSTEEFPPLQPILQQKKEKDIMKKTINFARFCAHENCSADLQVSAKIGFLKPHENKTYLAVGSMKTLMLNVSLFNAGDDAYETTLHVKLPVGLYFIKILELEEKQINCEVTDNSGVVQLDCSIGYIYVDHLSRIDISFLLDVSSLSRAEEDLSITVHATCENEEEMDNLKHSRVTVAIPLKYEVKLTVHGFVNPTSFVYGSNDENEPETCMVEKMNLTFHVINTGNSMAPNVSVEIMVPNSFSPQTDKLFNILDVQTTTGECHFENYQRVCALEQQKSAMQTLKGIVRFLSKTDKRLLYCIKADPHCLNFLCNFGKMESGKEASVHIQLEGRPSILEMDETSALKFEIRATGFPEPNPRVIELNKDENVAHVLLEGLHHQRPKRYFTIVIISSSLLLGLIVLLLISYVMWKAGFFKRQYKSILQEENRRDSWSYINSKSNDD
Sequence of α4β1 (P05556 21-798): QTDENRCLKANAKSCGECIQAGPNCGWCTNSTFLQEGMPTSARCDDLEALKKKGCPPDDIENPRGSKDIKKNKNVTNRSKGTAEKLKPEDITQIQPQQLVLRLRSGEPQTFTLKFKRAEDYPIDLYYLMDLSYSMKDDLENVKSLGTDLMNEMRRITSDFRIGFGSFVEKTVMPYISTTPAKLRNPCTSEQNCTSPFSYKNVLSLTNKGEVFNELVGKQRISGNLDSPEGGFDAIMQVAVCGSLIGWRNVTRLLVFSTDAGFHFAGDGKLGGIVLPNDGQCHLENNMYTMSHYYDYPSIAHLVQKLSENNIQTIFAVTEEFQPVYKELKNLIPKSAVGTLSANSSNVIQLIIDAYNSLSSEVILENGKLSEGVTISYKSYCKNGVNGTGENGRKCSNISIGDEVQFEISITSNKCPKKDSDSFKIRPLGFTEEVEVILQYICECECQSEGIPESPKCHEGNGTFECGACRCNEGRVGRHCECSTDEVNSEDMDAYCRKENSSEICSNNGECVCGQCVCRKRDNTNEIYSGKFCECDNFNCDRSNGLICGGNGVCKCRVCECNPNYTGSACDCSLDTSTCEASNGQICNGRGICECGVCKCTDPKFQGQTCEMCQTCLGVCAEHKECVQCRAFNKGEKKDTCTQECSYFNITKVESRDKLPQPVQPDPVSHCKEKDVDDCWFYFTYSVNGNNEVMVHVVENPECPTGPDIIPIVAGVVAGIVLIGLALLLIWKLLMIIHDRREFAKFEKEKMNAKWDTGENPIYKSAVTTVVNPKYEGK

For orientation: IC50 means the midpoint of a concentration-inhibition curve. As a reminder, the half-life is how long it takes for the measured level to halve. Read a low half-life as fast loss. Regarding `CC(=O)N[C@@H]1C(=O)N(C)[C@@H](CCCNC(=N)N)C(=O)N[C@@H](CO)C(=O)N[C@@H](CC(=O)O)C(=O)N[C@@H]([C@@H](C)O)C(=O)N[C@@H](CC(C)C)C(=O)N[C@H](C(=O)N[C@@H](Cc2ccc(C(C)(C)C)cc2)C(=O)N[C@@H](CCC(=O)O)CC(=O)N[C@H](CCCCNC(=O)COCC(=O)NCCCC[C@@H](NC(=O)C[C@H](CCC(=O)O)NC(=O)[C@H](Cc2ccc(C(C)(C)C)cc2)NC(=O)[C@H]2NC(=O)[C@H](CC(C)C)NC(=O)[C@H]([C@@H](C)O)NC(=O)[C@H](CC(=O)O)NC(=O)[C@H](CO)NC(=O)[C@H](CCCNC(=N)N)N(C)C(=O)[C@@H](NC(C)=O)C(C)(C)SSC2(C)C)C(N)=O)C(N)=O)C(C)(C)SSC1(C)C` [compound 218, [Ac-Pen-(N-Me-Arg)-Ser-Asp-Thr-Leu-Pen-Phe(4-tBu)-(β-homoGlu)-(D-Lys)-NH2]2-DIG] (I: Ac-[Pen][NMeR]SDTL[Pen][Phe(4-tBu)][β3hE][dK]-NH2 / II: Ac-[Pen][NMeR]SDTL[Pen][Phe(4-tBu)][β3hE][dK]-NH2; disulfide I:1-I:7, II:1-II:7; linker I:10-II:10 via Diglycolyl), the IC50 was 0.5 nM at α4β7 and over 100 µM on α4β1. Further, in series [1], the half-life at 20 μM was over 360 min.
